For the series, the system named is HEP-G2 cells. As to the kind of experiment: cells. The conditions noted are these: for EC50 / Emax / EC (Emax): Homo sapiens; for EC50: HepG2, 3 h, read-out: HEP-G2 EC50, HEP-G2 cells, glucose utilisation, 3 hours incubation; for Emax: HepG2, read-out: HEP-G2 Emax (% of FCCP), HEP-G2 cells, maximal stimulation relative to FCCP; for EC (Emax): HepG2, read-out: HEP-G2 Emax (μM), HEP-G2 cells, concentration at which Emax is achieved (CEmax). A digest of the protocol: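 HEP-G2 cells were treated with compound for 3 h at 37 °C in MEM/0.5% BSA containing 10 μCi/ml D-(3-^3H(N))-glucose, then lysed with TCA; ^3H-water released via the respiratory chain was recovered by evaporation at 50 °C and counted. Values are corrected for non-specific and basal counts, expressed as % of maximal FCCP or DNP stimulation, and EC50 is from a variable-slope sigmoidal fit.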

For `N#CC(C#N)=NNc1ccc(OC(F)(F)F)cc1` [Example 27, Carbonylcyanide p-Trifluoromethoxy-Phenylhydrazone, reference compound], the EC50 turned out to be 3 µM, the maximal effect (Emax) amounted to 100% and the EC (Emax) stood at 30 µM.
On the same counts, the results for `N#CC(C#N)=Cc1c[nH]c2ccc(Cl)cc12` [Example 30, 2-((5-Chloro-1H-Indol-3-Yl)Methylene)Malononitrile] are 19.5 µM, 60% and 100 µM.
On the same counts, the results for `N#CC(C#N)=Cc1c(Cl)[nH]c2ccccc12` [Example 34, 2-(2-Chloro-1H-Indol-3-Ylmethylene)-Malononitrile] are 1.4 µM, 80% and 10 µM.
On the same counts, the results for `Cc1c(Br)cc(C(C)(C)C)c(O)c1C(=O)Nc1ccc([N+](=O)[O-])cc1Cl` [Example 37, 3-Bromo-5-Tert-Butyl-N-(2-Chloro-4-Nitro-Phenyl)-6-Hydroxy-2-Methyl-Benzamide] are 0.035 µM, 100% and 1 µM.
Consider `Cc1c(Cl)cc(C(C)(C)C)c(O)c1C(=O)Nc1ccc([N+](=O)[O-])cc1C(F)(F)F` [Example 50, 3-Tert-Butyl-5-Chloro-2-Hydroxy-6-Methyl-N-(4-Nitro-2-Trifluoromethyl-Phenyl)-Benzamide], for which the EC50 was 0.03 µM, the maximum response (Emax) was 82% and the EC (Emax) worked out at 0.1 µM.
Take `Cc1cc(C(C#N)c2ccc(Cl)cc2)c(Cl)cc1NC(=O)c1c(C)c(Br)cc(C(C)(C)C)c1O` (stereo not shown) [Example 56, 3-Bromo-5-Tert-Butyl-N-{5-Chloro-4-[(4-Chloro-Phenyl)-Cyano-Methyl]-2-Methyl-Phenyl}-6-Hydroxy-2-Methyl-Benzamide]: the EC50 came to 6.6 µM, the maximal effect (Emax) came out at 100% and the EC (Emax) stood at 100 µM.
On the same counts, the results for `Cc1c(Br)cc(C(C)(C)C)c(O)c1C(=O)Nc1ccc([N+](=O)[O-])cc1C(F)(F)F` [Example 58, 3-Bromo-5-Tert-Butyl-6-Hydroxy-2-Methyl-N-(4-Nitro-2-Trifluoromethyl-Phenyl)-Benzamide] are 0.03 µM, 100% and 0.1 µM.
As to `CC(=C(C#N)C#N)c1cc(C(C)(C)C)c(O)c(C(C)(C)C)c1` [Example 75, 2-[1-(3,5-Di-Tert-Butyl-4-Hydroxy-Phenyl)-Ethylidene]-Malononitrile], the concentration giving a half-maximal response (EC50) was determined as 0.36 µM, the Emax was found to be 120% and the EC (Emax) amounted to 30 µM. Further, the “HEP-G2 Tox” value (human, 3 h) is given as “Tox 0.3 mM”.
Regarding `CC(C)(C)c1cc(/C=C(\C#N)c2ccc([N+](=O)[O-])cc2)cc(C(C)(C)C)c1O` [Example 77, 3-(3,5-Di-Tert-Butyl-4-Hydroxy-Phenyl)-2-(4-Nitro-Phenyl)-Acrylonitrile], the 50% effective concentration (EC50) was found to be 0.31 µM, the Emax amounted to 100% and the EC (Emax) is 3 µM.

One may read the EC50 as the concentration needed to bring the measured effect to its halfway point. The term Emax denotes the greatest response seen or fitted, relative to the assay's reference.

For the origin of these results see patent publication US20040138301A1, “Chemical uncouplers for the treatment of obesity” (priority 2002, published 2004).
